“And” between values parts separate entries of the source, which are not always exact repeats. Identical values can stand only once. Like-named read-outs stand apart in the source and are kept apart here.
What was measured:
[1] = Plasma and brain trehalose levels 30 min post-dose in rat efficacy study (LC-MS/MS); format: in vivo, Sprague-Dawley rats; conditions: rats; for concentration at 30 min: Sprague-Dawley, rat
Method: Animal behavior was assessed pre-surgery and at 3 and 6 weeks post-surgery. Behaviour was assessed by the cylinder test to assess forelimb asymmetry with asymmetry indicating an imbalance in striatal dopaminergic function between the side injected with AAV1/2 αSYN and the contralateral side. Compounds that normalize the forelimb asymmetry are potentially useful for treating PD. After 6 weeks of trehalose treatment, the animals were killed approximately 30 mins after the last administration of trehalose. Striatal tissue from both hemispheres was collected and analysed for dopamine levels. Substantia nigra tissue was collected and analysed for the number of TH^+ve cells and the amount of A53T αSYN measured. Plasma and brain (cerebellum) samples were collected and trehalose levels analysed by LC-MS/MS.
When the animals were killed 30 mins post trehalose administration plasma and brain samples were collected (rats in the 0.89 g/kg/day group only received one dose of trehalose (0.89 g/kg) on this day). This time corresponds to approximately the Tmax of orally administered trehalose. […] Trehalose was measurable in the plasma 30 mins after receiving trehalose (0.89 or 2.67 g/kg) by oral gavage (Table 5). A 3-fold increase in the trehalose dose (0.89 g/kg to 2.67 g/kg) lead to an ˜6-fold increase in the trehalose plasma level, i.e. that increasing the dose produced a greater than dose-proportional increase in trehalose exposure. […] Trehalose was measurable in the brains of rats receiving trehalose (2.67 g/kg) by oral gavage (Table 5).
To better understand why administrating the same amount of trehalose by different routes led to differences in efficacy, studies were conducted to measure blood and brain levels of trehalose following administration of trehalose by 2% in the drinking water, three (3) times daily (0.89 g/kg each dose) and once daily (2.67 g/kg/day).

MPTP-lesioned mouse = conditions: 2% trehalose in drinking water; Sarkar et al. 2014; cited from earlier work
[2] = Plasma, brain and CSF trehalose levels in macaques after 17 weeks administration; format: in vivo, cynomolgus monkeys (Macaca fascicularis); conditions: 2.67 g/kg/day p.o. 17 weeks; for concentration at 1 h: female, cynomolgus monkey, po, 1 h after final administration
From the text: Twenty-five (25), female cynomolgus monkeys (Macaca fascicularis, 8.0-9.3 years of age, 3.2-4.4 kg) were split into 3 groups (n=8-9/group) and received stereotaxic injection of AAV vectors,either a vector expressing mutant A53T human alpha-synculein (AAV1/2-A53T-alpha-synuclein) or an empty vector (AAV1/2-EV), Genedetect, Auckland, New Zealand) into the substantia nigra. The A53T aSyn expressed is of the human sequence the AAV1/2-EV is a control vector of the same serotype and viral construction. Precise stereotaxic coordinates for all surgeries were calculated prior to surgery from individual monkey MRI scans. Injections containing the AAV1/2-A53T-alpha-synuclein or empty vector were made at a speed of 0.5 μl/min and a volume of 7 μl (at a viral titre of 1.7×10^12 active particles per ml) into 4 sites of each hemisphere of the substantia nigra. Commencing on the day of surgery and continuing for 17 weeks, macaques received either vehicle (sterile drinking water) or trehalose (2.67 g/kg/day) administered as a single daily administration (2.67 g/kg/day, p.o). The macaques were then killed and striatal tissue from both hemispheres was collected and analysed for dopamine and dopamine transporter (DAT) levels. Substantia nigra tissue was collected and analysed for the number of TH^+ve cells and the amount of αSYN measured. Plasma, CSF and brain (cerebellum) samples were collected and trehalose levels analysed by LC-MS/MS.
Single plasma, brain and CSF samples were collected 1 h after the final administration of trehalose. One-hour post-dose corresponds to approximately the Tmax of orally administered trehalose in macaques. The plasma, brain and CSF trehalose levels were 2449±884 ng/ml, 129±35 ng/g and 33±9 ng/ml respectively.

AAV α-synuclein rat = conditions: 2 and 5% in drinking water; He et al. 2015; cited from earlier work
[3] = Extrapolation from animal data to human plasma exposure; conditions: oral, humans, 2.67 g/kg, extrapolated from rat and macaque data, read-out: trehalose plasma Cmax (estimated)
Method: On a dose per body weight basis, trehalose produced very similar plasma and brain levels in rats and macaques (see FIG. 3 and Tables 6 and 7) when dosed with 2.67 g/kg/day. We also know that a trehalose dose of 2.67 g/kg/day was efficacious in the rat and non-human primate. Therefore, it is contemplated that an efficacious dose for humans includes 2.67 g/kg which is estimated to produce a trehalose plasma Cmax of ˜10000 ng/ml. From the rat data it is also clear that a dose of 0.89 g/kg will be ineffective.

OC[C@H]1O[C@H](O[C@H]2O[C@H](CO)[C@@H](O)[C@H](O)[C@H]2O)[C@H](O)[C@@H](O)[C@@H]1O [trehalose, (2R,3S,4S,5R,6R)-2-(Hydroxymethyl)-6-[(2R,3R,4S,5S,6R)-3,4,5-trihydroxy-6-(hydroxymethyl)oxan-2-yl]oxyoxane-3,4,5-triol]
concentration at 30 min ([1]; brain (cerebellum), cerebellum, 2.67 g/kg once daily oral gavage, 30 min post-dose, read-out: Brain trehalose level): 52.8 ± 16.9 ng/mL
concentration at 30 min ([1]; plasma, 0.89 g/kg 3 times daily oral gavage, 30 min after one 0.89 g/kg dose, read-out: Plasma trehalose level): 1130 ± 178 ng/mL
concentration at 30 min ([1]; plasma, 2.67 g/kg once daily oral gavage, 30 min post-dose, read-out: Plasma trehalose level): 6380 ± 890 ng/mL
Brain trehalose level ([1]; cerebellum, 0.89 g/kg 3 times daily oral gavage, 30 min after one 0.89 g/kg dose): below the limit of detection and BLQ
Brain trehalose level ([1]; cerebellum, 2% in drinking water): below the limit of detection and BLQ
Brain trehalose level ([1]; cerebellum, 2.67 g/kg once daily oral gavage, 30 min post-dose): measurable
Plasma trehalose level ([1]; 0.89 g/kg 3 times daily oral gavage, 30 min after one 0.89 g/kg dose): measurable
increase in trehalose plasma level on 3-fold increase in dose ([1]; 0.89 g/kg to 2.67 g/kg, 30 min post-dose): 6 fold and 5.6 fold
Plasma trehalose level ([1]; 2% in drinking water, 6 weeks): below the limit of quantification and BLQ
Plasma trehalose level ([1]; 2.67 g/kg once daily oral gavage, 30 min post-dose): measurable
Effect (MPTP-lesioned mouse): Neuroprotection
correlation of trehalose level in the CSF with level in the brain [2]: significantly correlated
concentration at 1 h ([2]; CSF, read-out: CSF trehalose level): 33 ± 9 ng/mL
concentration at 1 h ([2]; brain (cerebellum), read-out: brain trehalose level): 129 ± 35 ng/g
concentration at 1 h ([2]; plasma, read-out: plasma trehalose level): 2450 ± 884 ng/mL
Effect (AAV α-synuclein rat): Neuroprotection
Cmax [3]: ~10000 ng/mL
